In ChEMBL document CHEMBL3045510, “Phyllostoxin and phyllostin, bioactive metabolites produced by Phyllosticta cirsii, a potential mycoherbicide for Cirsium arvense biocontrol” (J Agric Food Chem, 2008) one finds Activity data, which are given here for 2 compounds.

The subject of data set [1] is Artemia salina. Put plainly: Toxicity against Artemia salina (brine shrimp) up to 1 mM. Format: organism-based. Particulars: in vivo.
In data set [2] the test system is Lactobacillus sp. Description: Antimicrobial activity against Lactobacillus sp. up to 100 ug/disk. Format: functional, organism-based.
The subject of data set [3] is Cirsium arvense. Description: Herbicidal activity against Cirsium arvense (Canada thistle) assessed induction of necrosis on leaves as 1 mM. Type of data set: functional, organism-based.
Data set [4] concerns Geotrichum candidum. Description: Antimicrobial activity against Galactomyces geotrichum up to 100 ug/disk. Type of data set: functional, organism-based.
The subject of data set [5] is Escherichia coli. Put plainly: Antimicrobial activity against Escherichia coli up to 100 ug/disk. Type of data set: functional, organism-based.

Activity calls are given as the source filed them. The rule behind the calls is not given here.

With `COC(=O)C1=C[C@@H](O)[C@@H]2OC(=O)[C@@H](C)O[C@H]2C1` [PHYLLOSTIN], the Activity result in data set [1] is on record as “Non-toxic”. Besides, the result in data set [2], in data set [3], in data set [4] and in data set [5] was inactive.
Consider `CCC(=O)C1(C)C(=O)c2c1ccc(C)c2OC(C)=O` (stereo not given) [PHYLLOSTOXIN], for which the Activity result in data set [1] is on record as “Non-toxic”. Further, the outcome in data set [2], in data set [4] and in data set [5] was inactive. In addition, in data set [3], the result was Active.
